Laboratory results published in US20100075894A1, “REDUCING ER STRESS IN THE TREATMENT OF OBESITY AND DIABETES” (HARVARD UNIVERSITY, priority 2004, published 2010).

Tests used:
[1] = tested on: IRE-1α^−/− and wild type (WT) fibroblasts; assay: tunicamycin in IRE-1α+/+ and IRE-1α−/− fibroblasts; type: cell-based, mouse
Source text: JNK activity was examined at indicated times following treatment with tunicamycin in IRE1a+/+ and IRE-1a−/− fibroblasts using an […] kinase assay and recombinant c-jun as substrate. JNK activity and total JNK levels (a). Phosphorylation of IRS-1 at ser307 residue in IRE1a+/+ and IRE-1a−/− fibroblasts following treatment with tunicamycin following IRS-1 immunoprecipitation (IP) and immunoblotting (IB) with an IRS-1 phosphoserine 307-specific antibody (b). Insulin (ins)-stimulated IRS-1 tyrosine phosphorylation and total IRS-1 in levels following treatment of IRE1a+/+ and IRE-1a−/− fibroblasts with tunicamycin.
(§1) (A) ER stress was induced in Fao liver cells by a 3-hour treatment with 5 μg/ml tunicamycin (Tun). Cells were subsequently stimulated with insulin (Ins). IRS-1 tyrosine and serine (Ser307) phosphorylation, Akt phosphorylation (Ser473), insulin receptor (IR) tyrosine phosphorylation, and their total protein levels were examined using either immunoprecipitation (IP) followed by immunoblotting (IB) or direct immunoblotting. (B) Quantitation of IRS-1 (tyrosine and Ser307), Akt (Ser473), and IR (tyrosine) phosphorylation under the experimental conditions described in (A) with normalization to protein levels for each molecule. (C) Inhibition of ER stress-induced (300 nM thapsigargin for 4 hours) Ser307 phosphorylation of IRS-1 by JNK-1 inhibitor, SP600125 (JNKi, 25 μM), (D) Quantitation of IRS-1 Ser307 phosphorylation under conditions described in (C). (E) Reversal of ER stress-induced inhibition of insulin-stimulated tyrosine phosphorylation (pY) of IRS-1 by a JNK inhibitor. (F) Quantitation of insulin-induced IRS-1 tyrosine phosphorylation levels described in (E). (G) JNK activity, Ser307 phosphorylation of IRS-1, and total IRS-1 levels at indicated times following tunicamycin treatment (Tun, 10 μg/ml for 1 hour) in IRE-1α^+/+ and IRE-1α^−/− fibroblasts. (H) Insulin-stimulated IRS-1 tyrosine phosphorylation and total IRS-1 levels following tunicamycin treatment (Tun, 10 μg/ml for 1 hour) in IRE-1α^+/+ and IRE-1α^−/− fibroblasts. […] All graphs show mean±SEM from at least 2 independent experiments and statistical significance from the controls is indicated by * with p<0.005.
In the presence of ER stress, increased phosphorylation of inositol requiring kinase-1α (IRE-1α) leads to recruitment of TNF-α receptor-associated factor 2 (TRAF2) protein and activates JNK (Urano et al., Science 287:664 (2000); incorporated herein by reference). To address whether ER stress-induced insulin resistance is dependent on intact IRE-1α, we measured JNK activation, IRS-1 serine phosphorylation, and insulin receptor signaling upon exposure of IRE-1α^−/− and wild type (WT) fibroblasts to tunicamycin. […]

Fao liver cells = assay: ER stress inducers and insulin action in Fao liver cells; type: cell-based, rat
Experimental: as §1
(A) ER stress was induced in Fao cells by 1 hour treatment with 300 nM thapsigargin (Thap), and cells were subsequently stimulated with insulin (Ins). IRS-1 tyrosine phosphorylation (pY) and serine phosphorylation (pSer307), insulin receptor (IR) tyrosine phosphorylation, and total protein levels were examined using either immunoprecipitation (IP) followed by immunoblotting (IB) or direct immunoblotting. (B) Fao cells were treated with sulindac sulfide (SS: 0, 7.5, 30, and 60 μM) for 45 minutes with or without an additional hour of exposure to 300 nM thapsigargin (Thap). IRS-1 serine phosphorylation and total IRS-1 protein levels were examined as described above.
To investigate whether ER stress interferes with insulin action, we pretreated Fao liver cells with tunicamycin and thapsigargin, agents commonly used to induce ER stress. […] IRS-1 is a substrate for insulin receptor tyrosine kinase and serine phosphorylation of IRS-1, particularly mediated by JNK, reduces insulin receptor signaling (Hirosumi et al., Nature 420:333 (2002); incorporated herein by reference).
Cells: Rat Fao liver cells were cultured with RPMI 1640 (Gibco, Grand Island, N.Y.) containing 10% fetal bovine serum (FBS). […]

[2] = Fao cells pretreated with the agent

tunicamycin
insulin-stimulated tyrosine phosphorylation of IRS-1 ([1]; IRE-1α−/− cells): no such effect was detected
insulin-stimulated tyrosine phosphorylation of IRS-1 ([1]; WT cells): inhibited
JNK activation ([1]; WT fibroblasts): strong activation of JNK
phosphorylation of IRS-1 at Ser307 ([1]; WT fibroblasts): stimulated
insulin-induced Akt phosphorylation (Fao liver cells; [2]): suppressed
serine phosphorylation of IRS-1 (Fao liver cells; [2]): significant increase
insulin-stimulated tyrosine phosphorylation of IRS-1 (Fao liver cells; Fao liver cells pretreated with the agent): significantly decreased
